# From ChEMBL document CHEMBL3507680, “University of Dundee, Gates Library screen for HepG2 cell viability”
# Assay: Human HepG2 cell viability assay in 384 well format
# Assay type: toxicity, cell-based
# Set-up: dose 125 nL, time 70.5 hour; concentration not given beside the values
# Conditions: HepG2 cells, read-out: Inhibition
row,SMILES,cytotoxicity at 70.5 h [%]
1,N#Cc1ccc(CNC(=O)NCCC(=O)NC2CCCC2)c(F)c1,-2.28
2,Cc1nc[nH]c1C(=O)N1CCC2(CC1)CN(CCN(C)C)C(=O)O2,-6.22
3,COCc1nc(C(=O)N2CCCC2c2ccc(OC)cc2)cs1 (stereo not given),-14.3
4,CC(c1ccncn1)N(C)Cc1cc2cc3c(cc2[nH]c1=O)OCO3 (stereo not given),3.45
5,CN(Cc1nccn1CC(F)(F)F)C(=O)c1ccc2c(c1)OCO2,-11
6,O=C1CC(c2ccsc2)c2c(n(C3CCOCC3)[nH]c2=O)N1 (stereo not given),14.8
7,O=C(CN1CC(c2nc(-c3ccco3)no2)C1)NCCc1ccccc1,-11.2
8,CC1(C)CNC(=O)CN(C(=O)COc2ccccc2)C1,-14.2
9,Cc1nc2cc(C3CCN(Cc4cccc(F)c4F)C3)nn2c(O)c1C (stereo not given),-20.4
10,CCn1cc(N2Cc3nc(N4CCN(C)CC4)ncc3C2=O)cn1,-7.74
11,CN(C)C(=O)c1cccc(C2CNCCN2C)c1 (stereo not given),-4.31
12,Cc1cc(NCCCc2c(C)noc2C)nc(N)n1,-10.4
13,O=C1CC(C(=O)NCCN2CCOC2=O)c2cc(F)ccc2N1 (stereo not given),2.37
14,Cc1nc2ccccc2n1Cc1cc(C(=O)N2C[C@@H](C)O[C@@H](C)C2)no1,-8.42
15,CCn1cc(C(=O)N2CCOC(c3nc(-c4cccs4)no3)C2)cn1 (stereo not given),-2.41
16,O=C(NCCNc1ncccn1)NCCSC(F)(F)F,-10.7
17,CN1CC(c2cc(O)nc(NCc3cccc(F)c3)n2)CC1=O (stereo not given),-10.4
18,O=C(c1ncc(F)cc1F)N1CCC(c2ncc[nH]2)CC1,-14
19,CC(C)c1ncc(CN2CCOC(C(=O)Nc3ccccc3)C2)cn1 (stereo not given),-9.69
20,CCC(O)Cn1cc(C2=CCN(Cc3ccc(OC)cc3)CC2)cn1 (stereo not given),-11.9
21,Cc1cnc(CN2CC=C(c3c[nH]c4ncccc34)CC2)o1,5.53
22,Cn1cc(CN2CC[C@H]3CO[C@H](CNc4ncccn4)[C@H]3C2)cn1,20.3
23,COc1cccc(COC(C)C(=O)NCc2nnc3n2CCC3)c1 (stereo not given),-1.81

row,SMILES,cytotoxicity at 70.5 h [%]
1,Cn1cnnc1C1CCCN(C(=O)NCc2cc[nH]n2)C1 (stereo not given),18.7
2,CC(C)n1ccnc1C1CCCN(Cc2ccc(F)c(F)c2)C1 (stereo not given),38
3,Cc1cc(CN2CCN3C[C@H](c4ccccc4)[C@@H](CO)[C@H]3C2)on1,-5.95
4,CN(C)S(=O)(=O)NCC1CCN(Cc2ccccc2F)CC1,-9.47
5,O=C1CN(C(=O)c2ccc(Cl)cc2)CC(O)CN1Cc1cccs1 (stereo not given),-5.51
6,Cn1ccc(CN2CCC(CN3CCOCC3)CC2)cc1=O,-7.39
7,Cn1nc(CO)c2c1CCN(c1ncnc3c1CCNCC3)C2,-6.13
8,O=C1CCC(C(=O)Nc2ccc(=O)n(Cc3ccc(Cl)c(Cl)c3)c2)N1 (stereo not given),-16.6
9,CC(C)N1CCOC(CC(=O)N2CCCN(c3ccc(F)cc3)CC2)C1 (stereo not given),-3.4
10,CSC1(CNC(=O)c2cccc(-n3cccn3)c2)CCOCC1,1.71
11,Cc1cc(CNC(=O)N2CCN(Cc3ccccc3)C[C@H]2C)on1,30.7
12,CO[C@H]1COCCN(C(=O)c2ccc(C#N)cc2)C1,9.9
13,Brc1ccc(CNCc2nnc3n2CCC3)s1,14.8
14,c1ccc(Oc2ncccc2CNCc2ccccn2)cc1,-4.5
15,CC(C)[C@H]1CN(Cc2nccn2C)C[C@@H]1NC(=O)CCS(C)(=O)=O,-5.68
16,COc1cc(-c2cc(=O)[nH]cn2)cc(OC)c1OC,-5.45
17,Cn1nc(CNC(=O)c2nc3ccccc3s2)c2c1CCOC2,8.85
18,CN(C)c1cc(CNC(=O)Nc2ccc(N3CCCC3)nc2)ccn1,1.53
19,Cc1nc(-c2cc(F)c3c(c2)CC(CN)O3)c[nH]1 (stereo not given),3.79
20,CC(C)Oc1cc(N2CCCC(O)C2)nc(N)n1 (stereo not given),7.95
21,COCCN1CCC2(CC1)CCN(Cc1ccccn1)CC2,-1.25
22,CC1(C)CNC(=O)c2nc(C3CCCN(C(=O)C4CC4)C3)[nH]c2C1 (stereo not given),-7.49
